Read-outs that look alike come from different tables or passages of the source. Peptide text beside a SMILES is read from it.
What was measured:
[1] = system: Jurkat, WI-38, HS-68 and HeLa cells; assay: CADY-2-mediated delivery of p27-derived peptides, cell arrest in G1 by FACS; type: cell-based
Protocol: FIG. 12: The different p27-derived peptides were associated with CADY-2 at a molar ratio of 1/20, since it was determined that at this ratio, the average size of the particle is of about 100-200 nm in diameter. The formulations were obtained in phosphate buffer, using a fixed concentration of peptide of 1 μM. Cell lines were cultured in Dulbecco's Modified Eagle's Medium supplemented with 2 mM glutamine, 1% antibiotics (streptomycin 10'000 μg/ml, penicillin, 10'000 IU/ml) and 10% (w/v) fetal calf serum (FCS), at 37° C. in a humidified atmosphere containing 5% CO2. Cells were synchronized by serum privation during 40 hrs, and cultured in Dulbecco's Modified Eagle's Medium supplemented with 2 mM glutamine, 1% antibiotics. G1 synchronized cells were released upon serum addition, then overlaid with preformed CADY-2/peptide complexes. After 30 min incubation at 37° C., 1 ml of fresh DMEM supplemented with 10% fetal calf serum was added directly to the cells, without removing the overlay of CADY/peptide complexes, and cells were returned to the incubator. The level of cell arrest in G1 was analyzed by FACS 24 hrs after release.

[2] = system: 5PC3 or Human H1299 adenocarcinoma cells; assay: Intravenous injection of siRNA/CADY complexes, tumor mouse models; type: in vivo, NCR nude mice; conditions: only one injection, siRNA 10 μg
Protocol: Experiments were performed on two tumor mouse models.
(A) 1×10^6 5PC3 adenocarcinoma cells were injected subcutaneously into the flanks of NCR nude mice (day 1). siRNA/CADY-S complexes were obtained as described before at a ratio 1:20. CADY-S/siRNA complexes were injected intravenously at day 7. The size of the tumor was measured every day. Results correspond to the average of 5 different animals.
(B) 1×10^6 tumor cells expressing luciferase were injected intraperitoneally in the mice (4 to 8 week-old immune competent A/J female mices). Tumors were monitored using in vivo Imaging System (IVIS-Xenogen), which quantified total body bioluminescence after injection of D-luciferin. The tumor cells are visualized on three mice, each representative of one group (siRNA alone, CADY/siRNA complexes, and CADY-S/siRNA complexes).
The in vivo efficiency of CADY-S was then investigated, in order to determine if the cholesterol-modified form of CADY can improve siRNA delivery through intravenous injection and block tumor growth in vivo. Experiments were performed on two tumor mouse models, in which 5PC3 or Human H1299 adenocarcinoma cells were injected subcutaneously into the flanks of NCR nude mice.

HS-68 and Hela cells = assay: Toxicity of CADY variants, MTT assay (Table 1); type: cell-based, human
Protocol: The toxicity of CADY peptides has been investigated on different cell lines. Cells were incubated in the presence of increasing concentrations of CADY (from 0.1 μM to 1 mM) for 12 hrs and cell viability was estimated using MTT assay.
The different CADY variants have been tested on HS-68 and Hela cells.
The lack of toxicity of CADY/cargo complexes can be directly associated to absence of free carrier peptide in the solution (FIG. 4B).

[3] = system: Human H1299 adenocarcinoma cells; assay: Effect of p1p27/CADY complexes on tumor growth in vivo, intratumoral injection; set-up: species or system Swiss nude mice; conditions: 5 weeks after injection, control experiments
Protocol: The tumor animal model consists of Swiss nude mice, injected subcutaneously with 2×10^7 Human H1299 adenocarcinoma cells. CADY2/p1p27 complex and free CADY-2 and peptides were injected directly into the tumor (100-300 μg) after 1 and 4 weeks. p1p27/CADY complexes were obtained as described before at a ratio 1/20. Controls were performed by injecting PBS, CADY alone, or naked p1p27 instead of the p1p27/CADY-2 complex. The size of the tumor volume was measured with calipers once a week. Results correspond to the average of 5 different animals.

[4] = peptide delivered with CADY-2, ratio 1/20, 1 μM peptide, 24 hrs after release

NRTEENVSDGSPNAGSVEQTPKKPGLR [p2p27, p27-derived peptide used as a negative control, reference compound]
cell cycle arrest in G1 [1, 4]: no effect

CC(C)CCC[C@@H](C)[C@H]1CC[C@H]2[C@@H]3CC=C4C[C@@H](OC(=O)NCC(=O)N[C@@H](CC(C)C)C(=O)N[C@@H](Cc5c[nH]c6ccccc56)C(=O)N[C@@H](CCCNC(=N)N)C(=O)N[C@@H](C)C(=O)N[C@@H](CC(C)C)C(=O)N[C@@H](Cc5c[nH]c6ccccc56)C(=O)N[C@@H](CCCNC(=N)N)C(=O)N[C@@H](CC(C)C)C(=O)N[C@@H](CC(C)C)C(=O)N[C@@H](CCCNC(=N)N)C(=O)N[C@@H](CO)C(=O)N[C@@H](CC(C)C)C(=O)N[C@@H](Cc5c[nH]c6ccccc56)C(=O)N[C@@H](CCCNC(=N)N)C(=O)N[C@@H](CC(C)C)C(=O)N[C@@H](CC(C)C)C(=O)N[C@@H](Cc5c[nH]c6ccccc56)C(=O)N[C@@H](CCCCN)C(=O)N[C@@H](C)C(=O)NCCS)CC[C@]4(C)[C@H]3CC[C@]12C [CADY-S] (HELM PEPTIDE1{[CC(C)CCC[C@@H](C)[C@H]1CC[C@H]2[C@@H]3CC=C4C[C@@H](OC(=O)[*:2])CC[C@]4(C)[C@H]3CC[C@]12C].G.L.W.R.A.L.W.R.L.L.R.S.L.W.R.L.L.W.K.A.[SCCN[*:1]]}$$$$V2.0)
tumor growth [2]: fully abolish the tumor growth
EC50 (HS-68 and Hela cells; complexed with cargo (ratio 1/20), MTT, read-out: complexed EC50): 1000 µM

CC(=O)NCC(=O)N[C@@H](CC(C)C)C(=O)N[C@@H](Cc1c[nH]c2ccccc12)C(=O)N[C@@H](CCCNC(=N)N)C(=O)N[C@@H](C)C(=O)N[C@@H](CC(C)C)C(=O)N[C@@H](Cc1c[nH]c2ccccc12)C(=O)N[C@@H](CCCNC(=N)N)C(=O)N[C@@H](CC(C)C)C(=O)N[C@@H](CC(C)C)C(=O)N[C@@H](CCCNC(=N)N)C(=O)N[C@@H](CO)C(=O)N[C@@H](CC(C)C)C(=O)N[C@@H](Cc1c[nH]c2ccccc12)C(=O)N[C@@H](CCCNC(=N)N)C(=O)N[C@@H](CC(C)C)C(=O)N[C@@H](CC(C)C)C(=O)N[C@@H](Cc1c[nH]c2ccccc12)C(=O)N[C@@H](CCCCN)C(=O)N[C@@H](C)C(=O)NCCSS[C@H]1CC[C@@]2(C)C(=CC[C@H]3[C@@H]4CC[C@H]([C@H](C)CCCC(C)C)[C@@]4(C)CC[C@@H]32)C1 [CADY-S2] (HELM PEPTIDE1{[ac].G.L.W.R.A.L.W.R.L.L.R.S.L.W.R.L.L.W.K.A.[CC(C)CCC[C@@H](C)[C@H]1CC[C@H]2[C@@H]3CC=C4C[C@@H](SSCCN[*:1])CC[C@]4(C)[C@H]3CC[C@]12C]}$$$$V2.0)
EC50 (HS-68 and Hela cells; 12 h): 800 µM

RVSNGSPSLERMDARQAEHPKPSACRNL [p1p27]
cell cycle arrest in G1 ([1]; carrier alone or free peptide): no effect
cell cycle arrest in G1 [1, 4]: induced a cell cycle arrest in G1
increase of tumor size [3]: 5 fold

PSLERMDAR [pRXL]
efficiency compared with published TAT or Pen covalent based strategy ([1]; pRXL with CADY strategy): at least 2 fold
cell cycle arrest in G1 [1, 4]: induced a cell cycle arrest in G1

From patent US8242081B2, “Cell penetrating peptides for intracellular delivery of molecules” (Centre National de la Recherche Scientifique, priority 2005, dated 2012)
